# Test results as given in ChEMBL document CHEMBL1201862, “PubChem BioAssay data set” (2004).
#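 Five concentrations, 48 hours, 96-well plates. GI50 is the concentration that inhibits growth by half.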 Calls of active or inactive are those of the source. Cut-off read from the data, not from the text of the source: active = GI50 up to about 1.1 µM and inactive = higher.
# What was measured:
# Test in all cases: inhibition of tumour cell growth, NCI panel, 48 h
# [1] = test system: ACHN
# [2] = test system: CCRF-CEM
# [3] = test system: DU-145
# [4] = test system: HCC 2998
# [5] = test system: HL-60
# [6] = test system: HOP-62
# [7] = test system: KM12
# [8] = test system: LOX IMVI
# [9] = test system: M14
# [10] = test system: NCI/ADR-RES
# [11] = test system: OVCAR-8
# [12] = test system: PC-3
# [13] = test system: SF-295
# [14] = test system: SF-539
# [15] = test system: SK-MEL-28
# [16] = test system: SNB-75
# [17] = test system: SR
# [18] = test system: SW-620
# [19] = test system: UACC-257
# [20] = test system: UO-31
Compound,GI50 [1],GI50 [2],GI50 [3],GI50 [4],GI50 [5],GI50 [6],GI50 [7],GI50 [8],GI50 [9],GI50 [10],GI50 [11],GI50 [12],GI50 [13],GI50 [14],GI50 [15],GI50 [16],GI50 [17],GI50 [18],GI50 [19],GI50 [20]
CCCCCCCCCCCCCCCCC1=CC(=O)C=C(OC)C1=O,> 100 µM (inactive),29.4 µM (inactive),> 100 µM (inactive),> 100 µM (inactive),> 100 µM (inactive),> 100 µM (inactive),69.2 µM (inactive),65.3 µM (inactive),> 100 µM (inactive),95.5 µM (inactive),49.3 µM (inactive),80.4 µM (inactive),> 100 µM (inactive),47.3 µM (inactive),> 100 µM (inactive),> 100 µM (inactive),34.3 µM (inactive),> 100 µM (inactive),> 100 µM (inactive),> 100 µM (inactive)
CC(=O)OC(CCC1(C)OC1COc1ccc(CCNC(=O)C=C(C)C)cc1)C(C)(C)OC(C)=O (configuration not stated),3.61 µM (inactive),> 40.6 µM (inactive),> 100 µM (inactive),> 100 µM (inactive),> 32.1 µM (inactive),20 µM (inactive),17.8 µM (inactive),5.85 µM (inactive),16.3 µM (inactive),10.6 µM (inactive),22.9 µM (inactive),29.9 µM (inactive),0.743 µM (active),> 100 µM (inactive),28.2 µM (inactive),44.4 µM (inactive),24.9 µM (inactive),> 100 µM (inactive),0.449 µM (active),48.9 µM (inactive)
CN(C)CCNC(=O)c1cc([N+](=O)[O-])cc2c1Oc1ccccc1O2,6.46 µM (inactive),17.8 µM (inactive),37.8 µM (inactive),3.79 µM (inactive),18.9 µM (inactive),22.5 µM (inactive),31 µM (inactive),12.9 µM (inactive),31.5 µM (inactive),23.9 µM (inactive),14.4 µM (inactive),42 µM (inactive),22 µM (inactive),24.8 µM (inactive),35.2 µM (inactive),13 µM (inactive),11.7 µM (inactive),11.9 µM (inactive),29.4 µM (inactive),11.4 µM (inactive)
Nc1ccc(Oc2ccc(C3(c4ccc(Oc5ccc(N)cc5)cc4)C4CC5C6CC7CC5C3C(C7)C6C4)cc2)cc1,48.5 µM (inactive),2.62 µM (inactive),9.04 µM (inactive),1.07 µM (active),14 µM (inactive),72.9 µM (inactive),10.5 µM (inactive),6.01 µM (inactive),3.87 µM (inactive),> 100 µM (inactive),4.97 µM (inactive),> 45.4 µM (inactive),54.8 µM (inactive),42.5 µM (inactive),> 100 µM (inactive),> 100 µM (inactive),9.2 µM (inactive),97.3 µM (inactive),> 58.6 µM (inactive),5.24 µM (inactive)
COC1/C=C/C(C)C(C(C)C(OC)C(C)CCC(=O)C(C)C(C/C=C/N(C)C=O)OC)OC(=O)/C=C/C=C(\C)CC(OC)C(OC)C2=CC(=O)O[C@@H](C(C)C(OC)CC(OC)/C=C/C(C)C(O)C1)[C@H]2O (some centres not stated),0.0914 µM (active),0.039 µM (active),0.373 µM (active),0.0716 µM (active),0.0964 µM (active),0.0705 µM (active),0.164 µM (active),0.0145 µM (active),0.14 µM (active),0.226 µM (active),0.22 µM (active),0.0855 µM (active),0.115 µM (active),0.128 µM (active),0.192 µM (active),0.0268 µM (active),0.0809 µM (active),0.12 µM (active),0.13 µM (active),0.137 µM (active)
Nc1ccccc1CCCC(=O)O,> 100 µM (inactive),> 100 µM (inactive),> 100 µM (inactive),> 100 µM (inactive),45.4 µM (inactive),> 100 µM (inactive),> 100 µM (inactive),> 100 µM (inactive),> 100 µM (inactive),> 100 µM (inactive),> 100 µM (inactive),> 100 µM (inactive),> 100 µM (inactive),> 100 µM (inactive),> 100 µM (inactive),> 100 µM (inactive),> 100 µM (inactive),> 100 µM (inactive),> 100 µM (inactive),> 100 µM (inactive)
COC(=O)c1n[nH]c(C)c1/N=N/N(C)CCC#N,11.6 µM (inactive),7.67 µM (inactive),15.1 µM (inactive),19.5 µM (inactive),27.5 µM (inactive),18.8 µM (inactive),14.8 µM (inactive),8.18 µM (inactive),30.8 µM (inactive),16.2 µM (inactive),14.4 µM (inactive),20 µM (inactive),24.9 µM (inactive),15.2 µM (inactive),29.8 µM (inactive),13.4 µM (inactive),5.79 µM (inactive),14 µM (inactive),50.7 µM (inactive),0.301 µM (active)
COc1cc(C2c3cc4c(cc3OC(NNc3ccccc3)C2C)OCO4)cc(OC)c1O (configuration not stated),0.159 µM (active),0.463 µM (active),2.62 µM (inactive),0.331 µM (active),1.26 µM (inactive),5.66 µM (inactive),0.251 µM (active),0.049 µM (active),0.255 µM (active),1.07 µM (active),1.52 µM (inactive),0.815 µM (active),0.813 µM (active),0.596 µM (active),4.22 µM (inactive),2.33 µM (inactive),0.207 µM (active),2.59 µM (inactive),1.48 µM (inactive),1.03 µM (active)
COc1cc2cc(C(=O)Nc3cc4n(n3)-c3ccccc3C4)[nH]c2c(OC)c1OC,4.72 µM (inactive),1.38 µM (inactive),6.73 µM (inactive),10.4 µM (inactive),2.25 µM (inactive),2 µM (inactive),1.85 µM (inactive),4.68 µM (inactive),2 µM (inactive),1.25 µM (inactive),1.26 µM (inactive),2.71 µM (inactive),3.4 µM (inactive),7.08 µM (inactive),3.72 µM (inactive),5.83 µM (inactive),2.26 µM (inactive),7.08 µM (inactive),2.9 µM (inactive),1.97 µM (inactive)
OC1CCCC1C(O)(C(F)(F)F)C(F)(F)F (configuration not stated),> 100 µM (inactive),> 100 µM (inactive),> 100 µM (inactive),> 100 µM (inactive),> 100 µM (inactive),> 100 µM (inactive),> 100 µM (inactive),> 100 µM (inactive),> 100 µM (inactive),> 100 µM (inactive),> 100 µM (inactive),> 100 µM (inactive),> 100 µM (inactive),> 100 µM (inactive),> 100 µM (inactive),> 100 µM (inactive),> 100 µM (inactive),> 100 µM (inactive),> 100 µM (inactive),> 100 µM (inactive)
CC1=NC(=Cc2ccccc2O)C(=O)N1n1c(-c2ccccc2)nc2ccccc2c1=O,29.7 µM (inactive),26.6 µM (inactive),29.1 µM (inactive),38.1 µM (inactive),35.6 µM (inactive),55.1 µM (inactive),67 µM (inactive),33 µM (inactive),61.1 µM (inactive),33.3 µM (inactive),33.7 µM (inactive),30.3 µM (inactive),37.3 µM (inactive),26.7 µM (inactive),36.9 µM (inactive),34.1 µM (inactive),32.5 µM (inactive),49.1 µM (inactive),41.9 µM (inactive),32.9 µM (inactive)
COC(=O)CN(CC(=O)NCCCBr)C1CCCCC1N(CC(=O)OC)CC(=O)OC (configuration not stated),> 100 µM (inactive),> 100 µM (inactive),> 100 µM (inactive),> 100 µM (inactive),> 100 µM (inactive),> 100 µM (inactive),> 100 µM (inactive),> 100 µM (inactive),,> 100 µM (inactive),> 100 µM (inactive),> 100 µM (inactive),> 100 µM (inactive),> 100 µM (inactive),> 100 µM (inactive),19.1 µM (inactive),> 100 µM (inactive),> 100 µM (inactive),> 100 µM (inactive),84.7 µM (inactive)
CN(C)c1ccc(/C=N/n2c(-c3ccccc3)nc3ccccc3c2=O)cc1,18.5 µM (inactive),46.8 µM (inactive),> 100 µM (inactive),> 100 µM (inactive),40 µM (inactive),> 100 µM (inactive),24.8 µM (inactive),80.2 µM (inactive),79.6 µM (inactive),21.8 µM (inactive),41.6 µM (inactive),24.5 µM (inactive),> 100 µM (inactive),> 100 µM (inactive),> 100 µM (inactive),24.4 µM (inactive),14.1 µM (inactive),> 100 µM (inactive),> 100 µM (inactive),
Oc1c(Br)c(-c2ccccc2)nc2ccccc12,35.8 µM (inactive),44 µM (inactive),> 69.5 µM (inactive),> 10 µM (inactive),12.2 µM (inactive),> 62.1 µM (inactive),1.18 µM (inactive),64 µM (inactive),47 µM (inactive),35.1 µM (inactive),,9.38 µM (inactive),8.75 µM (inactive),82.8 µM (inactive),89.1 µM (inactive),8.15 µM (inactive),29.8 µM (inactive),97.5 µM (inactive),36.7 µM (inactive),4.71 µM (inactive)
